From patent publication US6969702B2, “Compounds and methods for increasing neurogenesis” (priority 2002, dated 2005)
Marks after values point to notes of the source that are not given here. Square brackets hold non-standard residues; d marks the D form. Peptide text beside a SMILES is read from it.

Assays:
[1] = test system: cAMP activation in mouse adult neural stem cells; experiment: cAMP detection (HitHunter EFC Cyclic AMP Chemiluminescence Assay); conditions: for Fold Induction cAMP: vs vehicle
[2] = test system: mouse adult neural stem cells; experiment: ATP-assay: proliferation (ATP levels) of neurosphere-derived cells; conditions: for proliferation of neural stem cells: cAMP activators, GPCR-independent; for Fold Induction ATP: vs vehicle
[3] = Mus musculus, Neural stem cell, 96 h, read-out: Fold Induction ATP
[4] = Table 2, 100 nM (cAMP concentration)

SMILES: COc1ccc(C2CNC(=O)C2)cc1OC1CCCC1 (centres unmarked) [Rolipram, rolipram]
- fold induction at 0.1 µM ([1]; Mus musculus, Neural stem cell, 0.25 h, read-out: Fold Induction cAMP): 3.8
- cAMP (pmol/well) ([1]; Table 1, 100 nM, after 15 minutes): 0.09 ± 0.03 pmol/well
- fold induction at 0.1 µM [2, 3]: 1.1
- ATP (nM ATP/well) ([2]; Table 1, 100 nM, 4 days in culture): 10.4 ± 0.4 nM ATP/well
- proliferation of neural stem cells [2]: increase

SMILES: CC(C)C[C@H](NC(=O)[C@H](CCCCN)NC(=O)CNC(=O)[C@H](CC(C)C)NC(=O)[C@@H](N)C(C)C)C(=O)N[C@@H](CO)C(=O)N[C@@H](CCC(N)=O)C(=O)N[C@@H](CCC(=O)O)C(=O)N[C@@H](CC(C)C)C(=O)N[C@@H](Cc1c[nH]cn1)C(=O)N[C@@H](CCCCN)C(=O)N[C@@H](CC(C)C)C(=O)N[C@@H](CCC(N)=O)C(=O)N[C@H](C(=O)N[C@@H](Cc1ccc(O)cc1)C(=O)N1CCC[C@H]1C(=O)N[C@@H](CCCNC(=N)N)C(=O)N[C@H](C(=O)N[C@@H](CC(N)=O)C(=O)N[C@H](C(=O)NCC(=O)N[C@@H](CO)C(=O)NCC(=O)N[C@H](C(=O)N1CCC[C@H]1C(N)=O)[C@@H](C)O)[C@@H](C)O)[C@@H](C)O)[C@@H](C)O (H-VLGKLSQELHKLQTYPRTNTGSGTP-NH2; N-terminus and C-terminus assumed)
- ATP (nM ATP/well) ([2]; Table 4, 100 nM): 15.0 ± 2.2 nM ATP/well

SMILES: CCCC[C@H](NC(=O)[C@H](CO)NC(=O)[C@H](CC(N)=O)NC(=O)[C@H](CC(C)C)NC(=O)[C@H](Cc1c[nH]cn1)NC(=O)[C@H](CCCCN)NC(=O)CNC(=O)[C@H](CC(C)C)NC(=O)[C@H](CC(N)=O)NC(=O)[C@H](Cc1c[nH]cn1)NC(=O)[C@H](CCCC)NC(=O)[C@H](CC(C)C)NC(=O)[C@H](CCC(N)=O)NC(=O)[C@@H](NC(=O)[C@H](CCC(=O)O)NC(=O)[C@H](CO)NC(=O)[C@@H](NC(=O)[C@@H](N)CO)C(C)C)[C@@H](C)CC)C(=O)N[C@@H](CCC(=O)O)C(=O)N[C@@H](CCCNC(=N)N)C(=O)N[C@H](C(=O)N[C@@H](CCC(=O)O)C(=O)N[C@@H](Cc1c[nH]c2ccccc12)C(=O)N[C@@H](CC(C)C)C(=O)N[C@@H](CCCNC(=N)N)C(=O)N[C@@H](CCCCN)C(=O)N[C@@H](CCCCN)C(=O)N[C@@H](CC(C)C)C(=O)N[C@@H](CCC(N)=O)C(=O)N[C@@H](CC(=O)O)C(=O)N[C@H](C(=O)N[C@@H](Cc1c[nH]cn1)C(=O)N[C@@H](CC(N)=O)C(=O)N[C@@H](Cc1ccc(O)cc1)C(N)=O)C(C)C)C(C)C [[Nle8,18, Tyr34]-Parathyroid Hormone (1-34) Amide (Human)]
- cAMP (pmol/well) ([1]; Table 2, 10 nM (cAMP concentration)): 0.16 ± 0.05 pmol/well
- Fold Induction cAMP ([1]; Table 2, 10 nM): 2.6* (10 nM) fold
- ATP (nM ATP/well) ([2]; Table 2, 1000 nM, 4 days): 23.5 ± 2.7 nM ATP/well
- Fold Induction ATP ([2]; Table 2, 1000 nM, 4 days): 1.7** fold

SMILES: CC[C@H](C)[C@H](NC(=O)[C@H](Cc1ccccc1)NC(=O)[C@H](CCC(=O)O)NC(=O)[C@H](CCCCN)NC(=O)[C@H](C)NC(=O)[C@H](C)NC(=O)[C@H](CCC(N)=O)NC(=O)CNC(=O)[C@H](CCC(=O)O)NC(=O)[C@H](CC(C)C)NC(=O)[C@H](Cc1ccc(O)cc1)NC(=O)[C@H](CO)NC(=O)[C@H](CO)NC(=O)[C@@H](NC(=O)[C@H](CC(=O)O)NC(=O)[C@H](CO)NC(=O)[C@@H](NC(=O)[C@H](Cc1ccccc1)NC(=O)[C@@H](NC(=O)CNC(=O)[C@H](CCC(=O)O)NC(=O)[C@H](C)NC(=O)[C@@H](N)Cc1c[nH]cn1)[C@@H](C)O)[C@@H](C)O)C(C)C)C(=O)N[C@@H](C)C(=O)N[C@@H](Cc1c[nH]c2ccccc12)C(=O)N[C@@H](CC(C)C)C(=O)N[C@H](C(=O)N[C@@H](CCCCN)C(=O)NCC(=O)N[C@@H](CCCNC(=N)N)C(=O)NCC(=O)O)C(C)C [Glucagon-Like Peptide-1 (7-37) (Human)]
- cAMP (pmol/well) [1, 4]: 0.08 ± 0.01 pmol/well
- Fold Induction cAMP ([1]; Table 2, 100 nM): 1.4* (100 nM) fold
- ATP (nM ATP/well) ([2]; Table 2, 1000 nM, 4 days): 18.3 ± 1.4 nM ATP/well
- Fold Induction ATP ([2]; Table 2, 1000 nM, 4 days): 1.3** fold

SMILES: Oc1ccc2c3c1O[C@H]1c4[nH]c5c(c4C[C@@]4(O)[C@@H](C2)N(CC2CC2)CC[C@]314)C[C@@]1(O)[C@H]2Cc3ccc(O)c4c3[C@@]1(CCN2CC1CC1)[C@H]5O4 [Nor-Binaltorphimine, nor-Binaltorphimine]
- fold induction at 10 pM ([1]; Mus musculus, Neural stem cell, read-out: Fold Induction cAMP): 6.3
- cAMP (pmol/well) ([1]; Table 2, 0.01 nM (bracketed cAMP concentration)): 6.10 ± 3.72 pmol/well
- fold induction at 0.0001 µM [2, 3]: 1.4
- ATP (nM ATP/well) ([2]; Table 2, 0.1 nM, 4 days): 19.4 ± 3.2 nM ATP/well

SMILES: CC[C@H](C)[C@H](NC(=O)[C@H](C)NC(=O)[C@@H](NC(=O)[C@H](CCC(N)=O)NC(=O)[C@@H]1CCCN1C(=O)[C@H](Cc1ccccc1)NC(=O)[C@@H](NC(=O)[C@H](Cc1c[nH]cn1)NC(=O)[C@H](Cc1ccccc1)NC(=O)[C@H](CCCCN)NC(=O)[C@H](CC(N)=O)NC(=O)[C@H](Cc1ccccc1)NC(=O)[C@H](CC(=O)O)NC(=O)[C@H](CCC(N)=O)NC(=O)[C@@H](NC(=O)[C@H](Cc1ccc(O)cc1)NC(=O)[C@@H](NC(=O)CNC(=O)[C@H](CC(C)C)NC(=O)[C@H](CCSC)NC(=O)[C@@H]1CSSC[C@H](N)C(=O)NCC(=O)N[C@@H](CC(N)=O)C(=O)N[C@@H](CC(C)C)C(=O)N[C@@H](CO)C(=O)N[C@@H]([C@@H](C)O)C(=O)N1)[C@@H](C)O)[C@@H](C)O)[C@@H](C)O)[C@@H](C)O)C(=O)NCC(=O)N[C@H](C(=O)NCC(=O)N[C@@H](C)C(=O)N1CCC[C@H]1C(N)=O)C(C)C [Calcitonin (human)]
- cAMP (pmol/well) [1, 4]: 0.35 ± 0.15 pmol/well
- ATP (nM ATP/well) ([2]; Table 2, 100 nM, 4 days): 9.9 ± 1.6 nM ATP/well

SMILES: CC(C)C[C@H](NC(=O)[C@H](CC(C)C)NC(=O)[C@@H](Cc1c[nH]c2ccccc12)NC(=O)[C@H](Cc1ccccc1)NC(=O)[C@@H](Cc1c[nH]c2ccccc12)NC(=O)[C@H](CCC(N)=O)NC(=O)[C@H](CCC(N)=O)NC(=O)[C@@H]1CCCN1C(=O)[C@H](CCCCN)NC(=O)[C@@H]1CCCN1C(=O)[C@@H](CCCNC(=N)N)NC(=O)[C@@H]1CCCN1C(=O)CNC(=O)[C@H](CC(C)C)NC(=O)[C@H](CC(C)C)NC(=O)[C@H](Cc1ccc(O)cc1)NC(=O)CNC(=O)[C@H](C)NC(=O)[C@H](CO)NC(=O)[C@H](CC(N)=O)NC(=O)[C@H](CC(C)C)NC(=O)[C@@H](NC(=O)[C@H](Cc1c[nH]c2ccccc12)NC(=O)CN)[C@@H](C)O)C(N)=O [Galanin (1-13)-Spantide-Amide, M40] (H-GWTLNSAGYLLGP[dR]PKPQQ[dW]F[dW]LL-NH2; N-terminus assumed)
- cAMP (pmol/well) ([1]; Table 2, 1 nM (cAMP concentration)): 0.82 ± 0.08 pmol/well
- ATP (nM ATP/well) ([2]; Table 2, 100 nM, 4 days): 7.10 ± 0.5 nM ATP/well

SMILES: CC[C@H](C)[C@H](NC(=O)[C@H](CC(=O)O)NC(=O)[C@H](CC(C)C)NC(=O)[C@H](Cc1cnc[nH]1)NC(=O)[C@@H]1CSSC[C@H](N)C(=O)N[C@@H](CO)C(=O)N[C@H]2CSSC[C@H](NC(=O)[C@H](CCC(=O)O)NC(=O)[C@H](CCCCN)NC(=O)[C@H](CC(=O)O)NC(=O)[C@H](CCSC)NC(=O)[C@H](CC(C)C)NC(=O)[C@H](CO)NC(=O)[C@H](CO)NC2=O)C(=O)N[C@@H](C(C)C)C(=O)N[C@@H](Cc2ccc(O)cc2)C(=O)N[C@@H](Cc2ccccc2)C(=O)N1)C(=O)N[C@H](C(=O)N[C@@H](Cc1c[nH]c2ccccc12)C(=O)O)[C@@H](C)CC [Endothelin-1 (human, Bovine, Canine, Mouse, Porcine, Rat)]
- ATP (nM ATP/well) ([2]; Table 4, 10 nM): 14.4 ± 2.4 nM ATP/well
- Fold Induction ATP ([2]; Table 4, 10 nM, 0.01 µM): 3.2* fold

SMILES: CC[C@H](C)[C@H](NC(=O)[C@H](CO)NC(=O)[C@H](CC(N)=O)NC(=O)[C@H](CC(C)C)NC(=O)[C@H](Cc1ccc(O)cc1)NC(=O)[C@H](CCCCN)NC(=O)[C@H](CCCCN)NC(=O)[C@@H](NC(=O)[C@H](C)NC(=O)[C@H](CCSC)NC(=O)[C@H](CCC(N)=O)NC(=O)[C@H](CCCCN)NC(=O)[C@H](CCCNC(=N)N)NC(=O)[C@H](CC(C)C)NC(=O)[C@H](CCCNC(=N)N)NC(=O)[C@@H](NC(=O)[C@H](Cc1ccc(O)cc1)NC(=O)[C@H](CC(N)=O)NC(=O)[C@H](CC(=O)O)NC(=O)[C@@H](NC(=O)[C@H](Cc1ccccc1)NC(=O)[C@@H](NC(=O)[C@H](C)NC(=O)[C@H](CC(=O)O)NC(=O)[C@H](CO)NC(=O)[C@@H](N)Cc1c[nH]cn1)C(C)C)[C@@H](C)O)[C@@H](C)O)C(C)C)C(=O)N[C@@H](CC(C)C)C(=O)N[C@@H](CC(N)=O)C(N)=O [Vasoactive Intestinal Peptide (Human, Porcine, Rat)]
- cAMP (pmol/well) [1, 4]: 0.39 ± 0.12 pmol/well
- ATP (nM ATP/well) ([2]; Table 2, 1000 nM, 4 days): 20.6 ± 1.2 nM ATP/well

SMILES: CC(C)Cn1c(=O)n(C)c(=O)c2[nH]cnc21 [IBMX, 3-Isobutyl-1-Methylxanthine]
- proliferation of neural stem cells [2]: increase

SMILES: CC[C@H](C)[C@@H]1NC(=O)[C@H](CCCNC(=N)N)NC(=O)[C@H](CC(=O)O)NC(=O)[C@H](CCSC)NC(=O)[C@H](CCCNC(=N)N)NC(=O)CNC(=O)CNC(=O)[C@H](Cc2ccccc2)NC(=O)[C@@H](NC(=O)[C@H](CO)NC(=O)[C@H](CO)NC(=O)[C@H](CCCNC(=N)N)NC(=O)[C@H](CCCNC(=N)N)NC(=O)[C@H](CC(C)C)NC(=O)[C@@H](N)CO)CSSC[C@@H](C(=O)N[C@@H](CC(N)=O)C(=O)N[C@@H](CO)C(=O)N[C@@H](Cc2ccccc2)C(=O)N[C@@H](CCCNC(=N)N)C(=O)N[C@@H](Cc2ccc(O)cc2)C(=O)O)NC(=O)CNC(=O)[C@H](CC(C)C)NC(=O)CNC(=O)[C@H](CO)NC(=O)[C@H](CCC(N)=O)NC(=O)[C@H](C)NC(=O)CNC1=O [ANP (human)]
- ATP (nM ATP/well) ([2]; Table 4, 10 nM): 12.7 ± 1.0 nM ATP/well
- Fold Induction ATP ([2]; Table 4, 10 nM): 1.3* fold
